In patent US20180333382A1, “PHARMACEUTICAL COMPOSITIONS COMPRISING DGLA AND USE OF SAME” (DS Biopharma Limited, priority 2017, published 2018):
Like-named read-outs stand apart in the source and are kept apart here.

Assay: Phase one study part 2: multiple dose (28 days) plasma PK of free and total DGLA
Assay type: in vivo, human
Conditions: for Tmax / half-life: human, plasma, oral; for half-life: read-out: t1/2, median, free DGLA, baseline-corrected plasma (converted); for free DGLA Peak Trough Fluctuation (PTF), mean: steady state Day 28 (0-24 hours)
Protocol: Multiple dose part two of the study comprised two cohorts (Cohorts five and six) of eight subjects each, who were administered multiple doses of study drug in the fasted state for 28 days. Subjects in Cohorts five and six received DS107G at 2000 or 4000 mg, respectively, or matching placebo once daily for 28 days. Cohort six was started after Cohort five's safety data were evaluated by the SMC. No interim analysis was planned. […]
In Part two of the study (Cohorts five and six), subjects were administered study drug (500-mg DS107G capsules or matching placebo capsules) once daily in the fasted state for 28 days. Subjects in Cohort five received study drug first and, if they tolerated the 2000-mg daily dose for the first 14 days, subjects in Cohort six were started on the 4000-mg daily dose for 28 days.
PK parameter was computed after correcting the dosed DGLA concentrations with baseline DGLA concentrations.

[1] = 4000 mg once daily, Day 28, 0 to 24 hours
[2] = 4000 mg once daily, Day 28, 0 to 168 hours
[3] = 4000 mg once daily, Day 28: 0 to 24 hours

CCCCC/C=C\C/C=C\C/C=C\CCCCCCC(=O)O [DS107G, Dihomo gamma linolenic acid]
AUC0-24, mean, free DGLA, baseline-corrected plasma [1]: 16155.2 ng·h/mL
AUC0-24/Dose, mean, free DGLA, baseline-corrected plasma [1]: 4.04 h/kL
AUC0-24/Dose, mean, total DGLA, baseline-corrected plasma [1]: 465.14 h/kL
AUC0-inf, mean, free DGLA, baseline-corrected plasma [1]: 22926.3 ng·h/mL
AUC0-inf/Dose, mean, free DGLA, baseline-corrected plasma [1]: 5.73 h/kL
AUC0-inf/Dose, mean, total DGLA, baseline-corrected plasma [1]: 1194.91 h/kL
CL/F, mean, free DGLA, baseline-corrected plasma [1]: 0.1865 kL/h
Cmax, mean, free DGLA, baseline-corrected plasma [1]: 2873.2 ng/mL
Cmax/Dose, mean, free DGLA, baseline-corrected plasma [1]: 0.718 kL⁻¹
Cmax/Dose, mean, total DGLA, baseline-corrected plasma [1]: 22.717 kL⁻¹
λz, mean, free DGLA, baseline-corrected plasma [1]: 0.0596 h⁻¹
λz, mean, total DGLA, baseline-corrected plasma [1]: 0.0471 h⁻¹
AUC0-24, mean, free DGLA, baseline-corrected plasma [2]: 16155.2 ng·h/mL
AUC0-24/Dose, mean, free DGLA, baseline-corrected plasma [2]: 4.04 h/kL
AUC0-24/Dose, mean, total DGLA, baseline-corrected plasma [2]: 465.14 h/kL
AUC0-inf, mean, free DGLA, baseline-corrected plasma [2]: 43184.3 ng·h/mL
AUC0-inf/Dose, mean, free DGLA, baseline-corrected plasma [2]: 10.80 h/kL
AUC0-inf/Dose, mean, total DGLA, baseline-corrected plasma [2]: 1575.98 h/kL
CL/F, mean, free DGLA, baseline-corrected plasma [2]: 0.1266 kL/h
Cmax, mean, free DGLA, baseline-corrected plasma [2]: 2873.2 ng/mL
Cmax/Dose, mean, free DGLA, baseline-corrected plasma [2]: 0.718 kL⁻¹
Cmax/Dose, mean, total DGLA, baseline-corrected plasma [2]: 22.717 kL⁻¹
λz, mean, free DGLA, baseline-corrected plasma [2]: 0.0404 h⁻¹
λz, mean, total DGLA, baseline-corrected plasma [2]: 0.0194 h⁻¹
% PTF (peak trough fluctuation), mean, free DGLA, steady-state baseline-corrected plasma [3]: 431.97%
% PTF (peak trough fluctuation), mean, total DGLA, steady-state baseline-corrected plasma [3]: 44.90%
AR(AUC) accumulation ratio, mean, free DGLA, steady-state baseline-corrected plasma [3]: 1.561
AR(AUC) accumulation ratio, mean, total DGLA, steady-state baseline-corrected plasma [3]: 4.163
AR(Cmax) accumulation ratio, mean, free DGLA, steady-state baseline-corrected plasma [3]: 1.385
AR(Cmax) accumulation ratio, mean, total DGLA, steady-state baseline-corrected plasma [3]: 3.440
CLss/F, mean, free DGLA, steady-state baseline-corrected plasma [3]: 0.2858 kL/h
CLss/F, mean, total DGLA, steady-state baseline-corrected plasma [3]: 0.0025 kL/h
Cavg, mean, free DGLA, steady-state baseline-corrected plasma [3]: 673.1 ng/mL
Cavg, mean, total DGLA, steady-state baseline-corrected plasma [3]: 77.5239 µg/mL
Cmin, mean, free DGLA, steady-state baseline-corrected plasma [3]: 147.0 ng/mL
Cmin, mean, total DGLA, steady-state baseline-corrected plasma [3]: 59.2167 µg/mL
Vzss/F, mean, free DGLA, steady-state baseline-corrected plasma [3]: 5.7563 kL
Vzss/F, mean, total DGLA, steady-state baseline-corrected plasma [3]: 0.1047 kL
tmin, median, free DGLA, steady-state baseline-corrected plasma [3]: 8.00 h
tmin, median, total DGLA, steady-state baseline-corrected plasma [3]: 2.00 h
time to reach steady-state plasma concentrations, free and total DGLA (2000 and 4000 mg daily): ~14 days
free DGLA mean baseline-corrected AUC0-24, 4000 mg vs 2000 mg dose (Day 1): ~2.5 fold
free DGLA mean baseline-corrected Cmax, 4000 mg vs 2000 mg dose (Day 1): ~3 fold
total DGLA mean baseline-corrected AUC0-24, 4000 mg vs 2000 mg dose (Day 1): ~1.5 fold
total DGLA mean baseline-corrected Cmax, 4000 mg vs 2000 mg dose (Day 1): ~1.5 fold
free DGLA mean baseline-corrected AUC0-24, 4000 mg vs 2000 mg dose (Day 28): ~1.7 fold
free DGLA mean baseline-corrected Cmax, 4000 mg vs 2000 mg dose (Day 28): ~1.4 fold
total DGLA mean baseline-corrected AUC0-24, 4000 mg vs 2000 mg dose (Day 28): ~1.4 fold
total DGLA mean baseline-corrected Cmax, 4000 mg vs 2000 mg dose (Day 28): ~1.2 fold
time of peak mean concentration of free DGLA after dosing (Days 1 and 28, 2000 and 4000 mg daily): about 4 hours
Tmax (both sexes, both dose cohorts, Day 1 and Day 28, read-out: free DGLA median tmax): 4 to 5 h
half-life (2000 mg, 2000 mg once daily, Day 1, 0 to 24 hours): 283 min
Tmax (2000 mg, 2000 mg once daily, Day 1, 0 to 24 hours, read-out: tmax, median, free DGLA, baseline-corrected plasma): 4 h
half-life (2000 mg, 2000 mg once daily, Day 28, 0 to 24 hours): 842 min
Tmax (2000 mg, 2000 mg once daily, Day 28, 0 to 24 hours, read-out: tmax, median, free DGLA, baseline-corrected plasma): 4 h
half-life (2000 mg, 2000 mg once daily, Day 28, 0 to 168 hours): 3820 min
Tmax (2000 mg, 2000 mg once daily, Day 28, 0 to 168 hours, read-out: tmax, median, free DGLA, baseline-corrected plasma): 4 h
half-life (4000 mg, 4000 mg once daily, Day 1, 0 to 24 hours): 355 min
Tmax (4000 mg, 4000 mg once daily, Day 1, 0 to 24 hours, read-out: tmax, median, free DGLA, baseline-corrected plasma): 5 h
half-life (4000 mg, 4000 mg once daily, Day 28, 0 to 24 hours): 763 min
Tmax (4000 mg, 4000 mg once daily, Day 28, 0 to 24 hours, read-out: tmax, median, free DGLA, baseline-corrected plasma): 4 h
half-life (4000 mg, 4000 mg once daily, Day 28, 0 to 168 hours): 2890 min
Tmax (4000 mg, 4000 mg once daily, Day 28, 0 to 168 hours, read-out: tmax, median, free DGLA, baseline-corrected plasma): 4 h
increase of average concentration at steady state when dose doubled from 2000 to 4000 mg daily, free DGLA (in vivo): 1.6 fold
increase of average concentration at steady state when dose doubled from 2000 to 4000 mg daily, total DGLA (in vivo): 1.2 fold
free DGLA Peak Trough Fluctuation (PTF), mean (first value of both dose cohorts (2000 mg)): ~430%
free DGLA Peak Trough Fluctuation (PTF), mean (second value of both dose cohorts (4000 mg)): ~490%
